Columns and labels:
Nav1.5 channel = molecular target: T1, Nav1.5 channel (Homo sapiens, UniProt Q14524); test: Cardiotoxicity fluorescence-based assay, Nav1.5 channel; type: cell-based; conditions: HEK293 cells
T1 construct: expressed in transfected cells; host or cells: HEK293
Procedure: (§1) Fluorescence-based assays were performed using HEK293 cell lines that stably express the Nav1.5-channel, Cav1.2-channel or hERG K+-channel, using FMP Red Dye (Molecular Devices), calcium-sensitive fluorescent dye Fluo-4 (Invitrogen) and FIuxOR™ reagent (Invitrogen), respectively, and a FLIPR Tetra High-Throughput Cellular Screening System (Molecular Devices), according to manufacturer's protocols (Molecular Devices). Tetrodotoxin (TTX), israpidine and nicarpidine, and astemizole and haloperidol were used as standard sodium channel, calcium channel, and hERG channel blockers. Data were analyzed using Genedata Screener.

[1] = tested on: PTZ-induced epileptiform brain activity in zebrafish larvae; test: Zebrafish PTZ seizure model, local field potential recordings (electrophysiology); type: in vivo, Danio rerio; conditions: 10 min recording, vs VHC+PTZ; for reduction of percentage of larvae with PTZ-induced epileptiform activity: MTC and optimal incubation time (2 h azaspirofuran, 18 h pseurotins), 15 min PTZ; for cumulative duration of epileptiform events / number of epileptiform events: MTC and optimal incubation time
Source text: To determine whether azaspirofuran A and pseurotin A2 can ameliorate the PTZ-induced hyperexcitable state of the brain that is characterized by epileptiform discharges, local field potential (LFP) recordings were non-invasively measured from the midbrain (optic tectum) of zebrafish larvae [Zdebik et al. (2013) PLoS One 8, e79765; Britton et al. (2016) In Electroencephalography (EEG): An Introductory Text and Atlas of Normal and Abnormal Findings in Adults, Children, and Infants (St. Louis and Frey, Eds.), Chicago]. To that end larvae were treated with either VHC or test compound (MTC and optimal incubation time were used) followed by a 15 min during exposure to PTZ or VHC prior to the electrophysiology measurements (FIG. 4). […] Thus, both compounds not only ameliorate PTZ-induced seizures but are likely to do so by lowering the PTZ-induced hyperexcitable state of the brain.
Experimental procedure was described before [Zdebik et al. (2013) PLoS One 8, e79765; Sourbron et al. (2017) Front. Pharmac. 8, 191; Copmans et al. (2018) Neurochem. Int. 112, 124-133.]. Non-invasive LFP recordings were measured from the midbrain (optic tectum) of 7 dpf zebrafish larvae pre-incubated with VHC only, PTZ only, compound and VHC, or compound and PTZ. Larvae were incubated for approximately 2 or 18 hours with VHC (1% DMSO) or compound (1% DMSO) in a 100 μL volume. After incubation, 100 μL of VHC (embryo medium) or 40 mM PTZ (dissolved in embryo medium, 20 mM working concentration) was added to the well for 15 min prior to recording. These steps occurred at 28° C., while further manipulation and electrophysiological recordings occurred at room temperature (21° C.). The larva was embedded in 2% low melting point agarose (Invitrogen) and the signal electrode (an electrode inside a soda-glass pipet (1412227, Hilgenberg) pulled with a DMZ Universal Puller (Zeitz, Germany), diameter±20 microns, containing artificial cerebrospinal fluid (ACSF: 124 mM NaCl, 10 mM glucose, 2 mM KCl, 2 mM MgSO4, 2 mM CaCl2, 1.25 mM KH2PO4, and 26 mM NaHCO3, 300-310 mOsmols)) was positioned on the skin covering the optic tectum. A differential extracellular amplifier (DAGAN, USA) amplified the voltage difference between the signal (measured by the signal electrode) and the reference electrode. The differential signal was band pass filtered at 0.3-300 Hz and digitized at 2 kHz via a PCI-6251 interface (National instruments, UK) using WinEDR (John Dempster, University of Strathclyde, UK). A grounding electrode grounded the electrical system. All electrodes were connected with ACSF. Each recording lasted 600 seconds. Manual analysis was completed by quantification of the number, cumulative duration, and mean duration of epileptiform-like events with Clampfit 10.2 software (Molecular Devices Corporation, USA). An electrical discharge was considered epileptiform if it was a poly-spiking event comprising at least 3 spikes with a minimum amplitude of three times the baseline amplitude and a duration of at least 100 milliseconds. Data are expressed as mean±SD for the number and cumulative duration of epileptiform events and as mean±SEM for the mean duration of events.

Cav1.2 channel = molecular target: T2, Cav1.2 channel (Homo sapiens, UniProt Q13936); test: Cardiotoxicity fluorescence-based assay, Cav1.2 channel; type: cell-based; conditions: HEK293 cells
T2 construct: expressed in transfected cells; host or cells: HEK293
Procedure: as §1

hERG channel = molecular target: T3, hERG channel (Homo sapiens, UniProt Q12809); test: Cardiotoxicity fluorescence-based assay, hERG channel; type: cell-based; conditions: HEK293 cells
T3 construct: expressed in transfected cells; host or cells: HEK293
T3 sequence (Q12809 whole entry): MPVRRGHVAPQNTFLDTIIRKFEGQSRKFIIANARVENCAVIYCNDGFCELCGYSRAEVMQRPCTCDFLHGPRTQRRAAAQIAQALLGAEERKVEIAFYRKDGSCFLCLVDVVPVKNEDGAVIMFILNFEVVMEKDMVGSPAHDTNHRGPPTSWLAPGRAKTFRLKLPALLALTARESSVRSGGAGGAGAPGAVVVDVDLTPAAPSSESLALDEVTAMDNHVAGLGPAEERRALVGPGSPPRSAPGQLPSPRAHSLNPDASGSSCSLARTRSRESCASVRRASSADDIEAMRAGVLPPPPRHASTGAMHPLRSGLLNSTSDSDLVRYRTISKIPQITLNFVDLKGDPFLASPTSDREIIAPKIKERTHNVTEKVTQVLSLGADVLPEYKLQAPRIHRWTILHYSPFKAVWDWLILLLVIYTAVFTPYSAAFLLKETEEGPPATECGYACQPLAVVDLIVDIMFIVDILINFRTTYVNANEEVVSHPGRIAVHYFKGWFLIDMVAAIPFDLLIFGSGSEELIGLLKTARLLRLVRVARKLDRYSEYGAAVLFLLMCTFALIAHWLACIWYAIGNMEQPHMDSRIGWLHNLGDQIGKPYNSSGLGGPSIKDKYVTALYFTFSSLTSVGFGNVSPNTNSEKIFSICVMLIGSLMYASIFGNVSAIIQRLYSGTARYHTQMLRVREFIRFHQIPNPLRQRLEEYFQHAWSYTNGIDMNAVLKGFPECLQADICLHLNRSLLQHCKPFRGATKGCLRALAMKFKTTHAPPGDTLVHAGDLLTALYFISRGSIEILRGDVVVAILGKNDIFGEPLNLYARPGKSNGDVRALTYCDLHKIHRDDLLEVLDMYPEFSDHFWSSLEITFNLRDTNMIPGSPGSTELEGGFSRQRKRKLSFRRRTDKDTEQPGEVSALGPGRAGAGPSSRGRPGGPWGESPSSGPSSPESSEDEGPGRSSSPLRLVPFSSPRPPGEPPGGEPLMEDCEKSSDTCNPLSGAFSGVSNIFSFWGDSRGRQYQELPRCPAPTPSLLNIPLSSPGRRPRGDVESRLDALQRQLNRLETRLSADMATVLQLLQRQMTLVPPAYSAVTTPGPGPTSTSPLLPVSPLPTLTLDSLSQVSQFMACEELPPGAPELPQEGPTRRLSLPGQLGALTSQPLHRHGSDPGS
Procedure: as §1

[2] = Metabolic stability assay (hepatic clearance); type: in vitro ADME; conditions: human liver microsomes; for Hepatic clearance / Hepatic clearance t1/2 (half-life): 1 μM
Procedure: The assay was performed with a mixture of test compounds (1 μM), NADPH (4 mM) and Human Liver Microsomes (HLM) (1 mg/mL) incubated at 37° C. Reactions were quenched at 0, 15, 30, 45, 60, and 90 min, using an equal volume of acetonitrile and then diluted 1:1 with water prior to analysis by LC-MS/MS. The analysis was performed using an Agilent Series 1290 LC system (Agilent Technologies, Santa Clara, Calif., USA) using a Supelco Discovery HS C18 (2.1×50 mm) 3 µm column that was held at 30° C. Solvent A contained water with 0.1% formic acid and solvent B contained acetonitrile with 0.1% formic acid, and the flow rate was set at 400 μL/min. The gradient elution was performed as follows: 0-0.5 min 0% eluent B; 0.5-7 min 100% eluent B; 7-9 min 100% eluent B; 9-9.2 min 0% eluent B; and 9.2-10.5 min 0% eluent B. An API 4000 mass spectrometer in positive ESI mode (AB SCIEX, Concord, ON, Canada) was used with a generic method for data acquisition on all compounds. Data processing was performed using MultiQuant Software (AB SCIEX, Concord, ON, Canada) to process the data. Peak areas were used to plot the Ln % remaining relative to time (t)=0. The slope of the natural log of the percent remaining versus time was calculated to determine the first-order rate constant (k) and the half-life (t1/2) of the test compounds according to the following equation: t1/2=0.693/k (min)

Kinetic solubility assay = type: physicochemical; conditions: for Kinetic solubility: 2 h incubation, absorbance 620 nm
Procedure: Protocol was based on literature [Perez et al. (2015) J Biomol Screen 20, 254-264]. The kinetic solubility assay was conducted in 96-well, flat-bottom, transparent polystyrene plates (Costar 9018, Corning, Tewksbury, Mass.). Six two-fold serial dilutions of an initial 10 mM test compound solution were prepared in DMSO. After a 2 h incubation period (to avoid missing slow precipitation) absorbance was measured at 620 nm by an EnVision multilabel plate reader. The kinetic solubility was estimated from the concentration of test compound that produced an increase in absorbance above the background levels (i.e. 1% DMSO in buffer).

T1 sequence (Q14524 whole entry): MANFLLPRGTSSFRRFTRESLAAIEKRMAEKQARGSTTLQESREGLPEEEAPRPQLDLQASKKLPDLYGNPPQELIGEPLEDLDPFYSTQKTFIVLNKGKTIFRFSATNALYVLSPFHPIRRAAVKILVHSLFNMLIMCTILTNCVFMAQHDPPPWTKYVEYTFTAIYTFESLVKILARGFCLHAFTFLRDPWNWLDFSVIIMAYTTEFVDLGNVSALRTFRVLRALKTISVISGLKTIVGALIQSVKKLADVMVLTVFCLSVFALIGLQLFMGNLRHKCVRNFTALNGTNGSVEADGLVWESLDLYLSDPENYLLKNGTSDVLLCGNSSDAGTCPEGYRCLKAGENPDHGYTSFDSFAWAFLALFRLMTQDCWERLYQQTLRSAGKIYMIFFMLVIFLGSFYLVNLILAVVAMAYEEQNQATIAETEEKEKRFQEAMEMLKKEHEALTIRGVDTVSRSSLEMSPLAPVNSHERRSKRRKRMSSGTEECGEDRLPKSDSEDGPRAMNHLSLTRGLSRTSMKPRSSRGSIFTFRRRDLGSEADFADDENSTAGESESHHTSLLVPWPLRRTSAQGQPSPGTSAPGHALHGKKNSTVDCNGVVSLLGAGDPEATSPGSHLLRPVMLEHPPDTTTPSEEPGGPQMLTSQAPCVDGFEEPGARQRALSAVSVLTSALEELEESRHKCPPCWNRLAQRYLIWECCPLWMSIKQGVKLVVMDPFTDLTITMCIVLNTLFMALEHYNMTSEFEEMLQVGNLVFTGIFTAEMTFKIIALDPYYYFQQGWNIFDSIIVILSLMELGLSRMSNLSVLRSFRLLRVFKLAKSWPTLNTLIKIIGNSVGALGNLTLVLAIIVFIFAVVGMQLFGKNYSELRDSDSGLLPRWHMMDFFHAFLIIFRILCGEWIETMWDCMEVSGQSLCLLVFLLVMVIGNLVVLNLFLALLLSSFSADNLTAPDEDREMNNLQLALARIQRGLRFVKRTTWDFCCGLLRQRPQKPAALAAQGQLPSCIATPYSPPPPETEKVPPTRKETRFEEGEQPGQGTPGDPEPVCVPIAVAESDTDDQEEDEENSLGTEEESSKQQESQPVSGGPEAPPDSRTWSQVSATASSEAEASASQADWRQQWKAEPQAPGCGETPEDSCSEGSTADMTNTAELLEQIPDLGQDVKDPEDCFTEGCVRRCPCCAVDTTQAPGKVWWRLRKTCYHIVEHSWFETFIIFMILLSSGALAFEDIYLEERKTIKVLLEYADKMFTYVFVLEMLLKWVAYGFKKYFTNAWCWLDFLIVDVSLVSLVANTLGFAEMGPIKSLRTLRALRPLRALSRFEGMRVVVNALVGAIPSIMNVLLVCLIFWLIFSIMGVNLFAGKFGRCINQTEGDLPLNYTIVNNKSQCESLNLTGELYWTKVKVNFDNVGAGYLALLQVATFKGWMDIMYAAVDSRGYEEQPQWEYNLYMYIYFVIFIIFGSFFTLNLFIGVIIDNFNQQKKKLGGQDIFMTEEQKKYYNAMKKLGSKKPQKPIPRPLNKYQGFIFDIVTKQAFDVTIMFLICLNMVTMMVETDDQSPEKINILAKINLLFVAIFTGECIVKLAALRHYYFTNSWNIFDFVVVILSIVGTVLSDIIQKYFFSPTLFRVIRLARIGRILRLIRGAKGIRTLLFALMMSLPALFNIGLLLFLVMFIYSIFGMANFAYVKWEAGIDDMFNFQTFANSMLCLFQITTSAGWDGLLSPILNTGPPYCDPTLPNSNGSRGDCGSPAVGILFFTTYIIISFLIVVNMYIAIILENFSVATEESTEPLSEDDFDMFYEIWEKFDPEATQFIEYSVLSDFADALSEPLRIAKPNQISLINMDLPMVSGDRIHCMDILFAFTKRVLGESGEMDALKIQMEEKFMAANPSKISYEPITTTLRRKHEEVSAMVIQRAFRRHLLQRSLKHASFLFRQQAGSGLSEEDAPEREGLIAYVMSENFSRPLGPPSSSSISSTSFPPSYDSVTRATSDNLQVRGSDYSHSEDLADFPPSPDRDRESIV

SMILES	Cardiotoxicity Nav1.5 channel, effect (Nav1.5 channel)	IC50 (Nav1.5 channel)	reduction of percentage of larvae with PTZ-induced epileptiform activity [1]	cumulative duration of epileptiform events [1]	number of epileptiform events [1]	Cardiotoxicity Cav1.2 channel, effect (Cav1.2 channel)	IC50 (Cav1.2 channel)	Cardiotoxicity hERG channel, effect (hERG channel)	IC50 (hERG channel)	Hepatic clearance, rating [2]	Hepatic clearance [2]	Hepatic clearance t1/2 (half-life) [2]	Hepatic clearance t1/2 (half-life) ([2]; listed as Azaspirofuran A)	Kinetic solubility, rating (Kinetic solubility assay)	Kinetic solubility (Kinetic solubility assay)	Hepatic clearance t1/2 (half-life) ([2]; listed as Pseurotin A2)
CCc1ccc(C2=C(C)C(=O)C3(O2)C(=O)NC(OC)(C(=O)c2ccccc2)C3O)o1 (stereo not drawn) [azaspirofuran A]	Low	39.1 µM	~60%	shorter cumulative duration of events	significantly less epileptiform events	No effect	> 50 µM	No effect	> 50 µM	Medium	20.17 μL/ μL/min/mg protein	33 min	33.12 min	Acceptable	>100 µM	–
CC/C=C\[C@H](O)[C@H](O)C1=C(C)C(=O)[C@]2(O1)C(=O)N[C@](OC)(C(=O)c1ccccc1)[C@H]2O [pseurotin A2]	No effect	> 50 µM	33%	shorter cumulative duration of events	significantly less epileptiform events	No effect	> 50 µM	No effect	> 50 µM	Low	<8.6 μL/ μL/min/mg protein	> 60 min	–	Acceptable	>100 µM	> 60 min

— patent US20200253929A1, “TREATMENT OF EPILEPSY” (priority 2017, published 2020)
